Measured values reported in patent EP4722216A1, “PYRROLOPYRIMIDINE DERIVATIVE AND USE THEREOF IN MEDICINE” (Kangbaida (Sichuan) Biotechnology Co., Ltd., priority 2023, dated 2024).
pIC50: −log10 of the molar value.

What was measured:
[1] = target: T1, FGFR1 (Homo sapiens, UniProt P11362); test: FGFR1-4 enzymology, HTRF method (FGFR1); assay type: biochemical; conditions: FGFR1 enzyme 0.10 nM, substrate (TK) 1 µM, ATP 40 µM
T1 construct: purchased Carna 08-133
Description: (§1) The inhibitory effects of compounds on the enzymatic activities of FGFR1, 2, 3, and 4 were detected by using HTRF method (PerkinElmer, 62TK0PEJ). 2× Enzyme and 2× substrate /ATP mixed solutions were prepared using a buffer solution. The final concentrations of FGFR1 enzyme (Cama, 08-133), the substrate (TK), and ATP were 0.10 nM, 1 µM, and 40 µM, respectively; the final concentrations of FGFR2 (Carna, 08-134), the substrate (TK), and ATP were 0.08 nM, 1 µM, and 20 µM, respectively; the final concentrations of FGFR3 (Cama, 08-135), the substrate (TK), and ATP were 0.30 nM, 1 µM, and 50 µM, respectively; and the final concentrations of FGFR4 (Carna, 08-136), the substrate (TK), and ATP were 10 nM, 1 µM, and 50 µM, respectively. The compound stock solution was diluted to 100× working concentration using DMSO. 50 nL/well of the compound was transferred to a 384-well plate using Echo, with 2 replicate wells per concentration. 2.5 µL/well of 2× kinase solution was added to reaction wells, mixed and incubated at 25°C for 10 min. 2.5 µL/well of 2× substrate/ATP solution was added to reaction wells and incubated at 25°C for 50 min. 2× Streptavidin-XL665/Cryptate-antibody mixed solution was prepared using a detection buffer solution (containing EDTA). 5 µL/well of a kinase detection reagent was added to the reaction wells and incubated at 25°C for 60 min. Fluorescence signals at 620 nm (Cryptate) and 665 nm (XL665) were read by a multifunctional microplate reader. IC50 (median inhibitory concentration) of the compound was calculated using the GraphPad nonlinear fitting formula, Y=Bottom + (Top-Bottom)/(1+10^((LogIC50-X) ×HillSlope)), in which X: the logarithmic value of the concentration of the compound; and Y: the inhibition rate of the compound (% inhibition).

[2] = target: T2, FGFR3 (Homo sapiens, UniProt P22607); test: FGFR1-4 enzymology, HTRF method (FGFR3); assay type: biochemical; conditions: FGFR3 0.30 nM, substrate (TK) 1 µM, ATP 50 µM
T2 construct: purchased Carna 08-135
T2 sequence (P22607 23-806): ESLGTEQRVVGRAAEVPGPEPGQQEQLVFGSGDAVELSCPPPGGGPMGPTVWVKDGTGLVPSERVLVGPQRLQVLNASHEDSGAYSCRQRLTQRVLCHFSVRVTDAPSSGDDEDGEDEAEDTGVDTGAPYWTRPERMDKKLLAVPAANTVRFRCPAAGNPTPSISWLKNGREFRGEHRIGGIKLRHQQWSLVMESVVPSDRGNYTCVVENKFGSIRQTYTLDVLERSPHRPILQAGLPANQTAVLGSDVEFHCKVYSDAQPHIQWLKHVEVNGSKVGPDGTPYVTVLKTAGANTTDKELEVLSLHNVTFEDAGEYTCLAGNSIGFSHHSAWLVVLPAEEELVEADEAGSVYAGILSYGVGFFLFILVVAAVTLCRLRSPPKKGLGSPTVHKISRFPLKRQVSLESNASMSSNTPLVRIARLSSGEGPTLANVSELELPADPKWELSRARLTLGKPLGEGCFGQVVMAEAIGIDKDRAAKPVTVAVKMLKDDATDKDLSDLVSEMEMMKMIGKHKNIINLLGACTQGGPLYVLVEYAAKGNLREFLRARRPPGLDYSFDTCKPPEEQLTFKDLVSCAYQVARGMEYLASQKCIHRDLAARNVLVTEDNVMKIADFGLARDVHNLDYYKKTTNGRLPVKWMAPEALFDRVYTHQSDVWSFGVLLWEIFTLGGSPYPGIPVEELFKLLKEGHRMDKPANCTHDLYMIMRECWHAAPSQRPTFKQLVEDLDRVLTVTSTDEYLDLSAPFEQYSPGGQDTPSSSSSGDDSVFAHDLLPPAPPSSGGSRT
Description: as §1

[3] = Pharmacokinetic study in rats in vivo; conditions: SD rats; for F: intragastric 5 mg/kg versus intravenous 1 mg/kg; for AUC0-t / Cmax / half-life: male, rat, po, Plasma, intragastric administration 5 mg/kg
Description: An appropriate amount of the test substance was weighed and formulated into a 0.5 mg/mL transparent and clear solution using 10% DMSO + 5% HS-15 + 85% Saline for intravenous administration. The test substance was formulated into a 1 mg/mL uniform suspension using 10% DMSO + 5% HS-15 + 85% Saline for intragastric administration. 6 healthy male SD rats (Charles River, SPF grade) were taken, with 3 animals assigned to the intravenous group and three to the intragastric group, respectively. With 3 animals per time point, blood samples were collected via the jugular vein. Blood samples were collected at 5 min, 15 min, 0.5, 1, 2, 4, 8, and 24 h after intravenous administration of the test substance (1 mg/kg), and blood samples were collected at 15 min, 0.5, 1, 2, 4, 6, 8, and 24 h after intragastric administration of the test substance (5 mg/kg). After anticoagulation with EDTA-K2, the blood samples were centrifuged at 6000 g at 4°C for 5 min to separate plasma, and all plasma samples were stored at -70°C for testing. The drug concentration of the test substance in plasma was determined by LC-MS/MS method (with gliclazide as an internal standard), and the main pharmacokinetic parameters were calculated by Winnolin 8.3 non-compartment model. The intragastric administration results are as follows: […]

[4] = Pharmacokinetic study on mouse brain tissue (plasma/cerebrospinal fluid/brain tissue); assay type: in vivo; conditions: ICR mice, intragastric administration 10 mg/kg; for Tmax / half-life: male, mouse, po
Description: An appropriate amount of the test substance was weighed and formulated into a 1 mg/mL transparent and clear solution using 10% DMSO + 5% HS-15 + 85% Saline for intragastric administration. 24 healthy male ICR mice (Charles River, SPF grade) were taken, with 3 animals per time point. Blood samples were collected at 15 min, 0.5, 1, 2, 4, 6, 8, and 24 h after intragastric administration of the test substance (10 mg/kg). The blood sample was anticoagulated with EDTA-K2 and then centrifuged at 6000 g at 4°C for 5 min to separate plasma. The plasma was stored at - 70°C for testing. After blood collection, the animal was sacrificed to collect cerebrospinal fluid, which was stored at -70°C for testing. The brain tissue was rinsed with ice-cold normal saline to remove the residual blood, blotted dry with absorbent paper, and then stored at -70°C for testing. The drug concentration of the specified compound in the plasma/cerebrospinal fluid/brain tissue was determined using LC-MS/MS method (with Gliclazide as an internal standard). The main pharmacokinetic parameters were calculated using a Winnolin 8.3 noncompartmental model.

[5] = target: T3, FGFR4 (Homo sapiens, UniProt P22455); test: FGFR1-4 enzymology, HTRF method (FGFR4); assay type: biochemical; conditions: FGFR4 10 nM, substrate (TK) 1 µM, ATP 50 µM
T3 construct: purchased Carna 08-136
T3 sequence (P22455 22-802): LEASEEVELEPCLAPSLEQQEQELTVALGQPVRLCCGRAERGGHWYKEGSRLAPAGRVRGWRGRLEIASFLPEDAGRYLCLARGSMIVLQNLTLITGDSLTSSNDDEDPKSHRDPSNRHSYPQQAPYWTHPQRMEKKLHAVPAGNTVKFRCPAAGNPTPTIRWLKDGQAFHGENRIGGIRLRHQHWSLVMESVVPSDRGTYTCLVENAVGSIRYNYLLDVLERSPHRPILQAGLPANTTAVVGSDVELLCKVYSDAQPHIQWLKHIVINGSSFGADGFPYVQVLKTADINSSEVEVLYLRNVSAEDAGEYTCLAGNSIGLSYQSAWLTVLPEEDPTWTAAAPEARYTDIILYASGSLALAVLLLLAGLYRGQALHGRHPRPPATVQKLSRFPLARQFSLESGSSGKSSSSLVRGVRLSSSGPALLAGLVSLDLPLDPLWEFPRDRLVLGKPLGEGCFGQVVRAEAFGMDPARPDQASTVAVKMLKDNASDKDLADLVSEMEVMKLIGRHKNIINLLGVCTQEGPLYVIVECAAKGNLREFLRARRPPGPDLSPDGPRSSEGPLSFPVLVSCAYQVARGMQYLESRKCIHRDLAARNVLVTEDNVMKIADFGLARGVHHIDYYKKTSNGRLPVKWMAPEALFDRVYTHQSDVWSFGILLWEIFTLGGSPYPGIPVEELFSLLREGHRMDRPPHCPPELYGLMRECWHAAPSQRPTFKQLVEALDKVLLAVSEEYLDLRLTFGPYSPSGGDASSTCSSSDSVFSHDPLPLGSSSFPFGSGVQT
Description: as §1

[6] = target: T4, FGFR2 (Homo sapiens, UniProt P21802); test: FGFR1-4 enzymology, HTRF method (FGFR2); assay type: biochemical; conditions: FGFR2 0.08 nM, substrate (TK) 1 µM, ATP 20 µM
T4 construct: purchased Carna 08-134
T4 sequence (P21802 22-821): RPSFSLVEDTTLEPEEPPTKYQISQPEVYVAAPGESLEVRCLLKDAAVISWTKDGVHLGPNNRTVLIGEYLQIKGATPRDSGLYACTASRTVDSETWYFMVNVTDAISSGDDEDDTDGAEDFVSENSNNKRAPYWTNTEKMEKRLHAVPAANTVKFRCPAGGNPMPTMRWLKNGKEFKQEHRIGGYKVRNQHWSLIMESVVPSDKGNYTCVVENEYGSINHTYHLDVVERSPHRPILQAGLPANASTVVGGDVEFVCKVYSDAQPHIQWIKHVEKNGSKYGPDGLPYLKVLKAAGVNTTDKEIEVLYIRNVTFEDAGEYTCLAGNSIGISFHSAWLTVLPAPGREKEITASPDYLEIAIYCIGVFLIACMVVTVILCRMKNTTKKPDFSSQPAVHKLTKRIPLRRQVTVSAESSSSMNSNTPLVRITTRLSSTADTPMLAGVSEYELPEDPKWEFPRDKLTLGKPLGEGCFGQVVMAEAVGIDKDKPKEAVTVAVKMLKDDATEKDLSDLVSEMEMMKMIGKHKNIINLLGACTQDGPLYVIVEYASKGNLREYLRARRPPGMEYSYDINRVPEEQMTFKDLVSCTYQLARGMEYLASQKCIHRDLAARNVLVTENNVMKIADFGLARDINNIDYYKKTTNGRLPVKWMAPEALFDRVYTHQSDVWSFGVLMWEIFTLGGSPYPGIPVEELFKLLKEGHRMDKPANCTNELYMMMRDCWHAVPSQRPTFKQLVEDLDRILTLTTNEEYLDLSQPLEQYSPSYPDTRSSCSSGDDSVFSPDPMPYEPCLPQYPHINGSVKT
Description: as §1

[7] = target: FGFR2 V564F (Homo sapiens, UniProt P21802, V564F); test: FGFR2 and FGFR3 mutant enzymology, HTRF method (FGFR2 V564F); assay type: biochemical; conditions: kinase 0.02 nM, substrate 1 µM, ATP 15 µM
Chain of FGFR2 V564F (P21802 22-821 V564F): as the sequence (P21802 22-821) above, with V543F counted along it
Description: (§2) The inhibitory effects of the compounds on the enzymatic activities of FGFR2 and FGFR3 mutants by using HTRF method (PerkinElmer, 62TK0PEJ). 2× Enzyme and 2× substrate /ATP mixed solutions were prepared using a buffer solution.
(§3) The compound stock solution was diluted to 100× working concentration using DMSO. 50 nL/well of the compound was transferred to a 384-well plate using Echo, with 2 replicate wells per concentration. 2.5 µL/well of 2× kinase solution was added to reaction wells, mixed and incubated at 25°C for 10 min. 2.5 µL/well of 2× substrate/ATP solution was added to reaction wells and incubated at 25°C for 50 min. 2× Streptavidin-XL665/Cryptate-antibody mixed solution was prepared using a detection buffer solution (containing EDTA). 5 µL/well of a kinase detection reagent was added to the reaction wells and incubated at 25°C for 60 min. Fluorescence signals at 620 nm (Cryptate) and 665 nm (XL665) were read by a multifunctional microplate reader. According to the test results, the inhibition rate was calculated. […] IC50 (median inhibitory concentration) of the compound was calculated using the GraphPad nonlinear fitting formula, Y = Bottom + (Top-Bottom)/(1+10^((LogIC50-X) ×HillSlope)), in which X: the logarithmic value of the concentration of the compound; and Y: the inhibition rate of the compound (% inhibition).

[8] = target: FGFR2 N549H (Homo sapiens, UniProt P21802, N549H); test: FGFR2 and FGFR3 mutant enzymology, HTRF method (FGFR2 N549H); assay type: biochemical; conditions: kinase 0.02 nM, substrate 1 µM, ATP 9 µM
Chain of FGFR2 N549H (P21802 22-821 N549H): as the sequence (P21802 22-821) above, with N528H counted along it
Description: as §2, §3

[9] = target: FGFR3 K650M (Homo sapiens, UniProt P22607, K650M); test: FGFR2 and FGFR3 mutant enzymology, HTRF method (FGFR3 K650M); assay type: biochemical; conditions: kinase 0.10 nM, substrate 1 µM, ATP 12 µM
Chain of FGFR3 K650M (P22607 23-806 K650M): as the sequence (P22607 23-806) above, with K628M counted along it
Description: as §2, §3

[10] = target: FGFR3 V555M (Homo sapiens, UniProt P22607, V555M); test: FGFR2 and FGFR3 mutant enzymology, HTRF method (FGFR3 V555M); assay type: biochemical; conditions: kinase 0.55 nM, substrate 1 µM, ATP 20 µM
Chain of FGFR3 V555M (P22607 23-806 V555M): as the sequence (P22607 23-806) above, with V533M counted along it
Description: as §2, §3

[11] = target: FGFR2 V564I (Homo sapiens, UniProt P21802, V564I); test: FGFR2 and FGFR3 mutant enzymology, HTRF method (FGFR2 V564I); assay type: biochemical; conditions: kinase 0.03 nM, substrate 1 µM, ATP 20 µM
Chain of FGFR2 V564I (P21802 22-821 V564I): as the sequence (P21802 22-821) above, with V543I counted along it
Description: as §2, §3

T1 sequence (P11362 22-822): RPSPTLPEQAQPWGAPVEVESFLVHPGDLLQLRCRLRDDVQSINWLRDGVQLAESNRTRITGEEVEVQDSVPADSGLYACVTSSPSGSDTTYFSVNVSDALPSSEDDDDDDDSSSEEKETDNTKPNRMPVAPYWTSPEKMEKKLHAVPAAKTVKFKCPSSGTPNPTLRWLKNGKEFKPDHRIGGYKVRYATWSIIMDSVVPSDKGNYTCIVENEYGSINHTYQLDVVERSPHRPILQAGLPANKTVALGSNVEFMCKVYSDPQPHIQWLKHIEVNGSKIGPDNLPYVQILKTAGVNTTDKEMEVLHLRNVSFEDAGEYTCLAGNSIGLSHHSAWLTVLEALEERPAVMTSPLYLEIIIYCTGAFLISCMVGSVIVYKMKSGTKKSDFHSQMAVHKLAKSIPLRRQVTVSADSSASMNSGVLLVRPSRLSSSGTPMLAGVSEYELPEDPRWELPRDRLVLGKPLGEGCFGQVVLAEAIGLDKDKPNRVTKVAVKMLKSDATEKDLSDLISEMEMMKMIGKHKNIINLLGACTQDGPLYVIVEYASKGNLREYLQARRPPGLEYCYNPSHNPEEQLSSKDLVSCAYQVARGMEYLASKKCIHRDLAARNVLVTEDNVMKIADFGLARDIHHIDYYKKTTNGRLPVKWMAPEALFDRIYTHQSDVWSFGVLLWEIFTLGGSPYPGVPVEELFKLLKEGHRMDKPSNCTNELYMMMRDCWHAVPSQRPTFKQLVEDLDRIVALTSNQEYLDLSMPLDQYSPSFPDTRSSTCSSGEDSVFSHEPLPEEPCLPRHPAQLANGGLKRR

pIC50 [1]	pIC50 [2]	F [3]	AUC0-t [3]	Cmax [3]	half-life [3]	AUC0-t ([4]; Brain tissue)	AUC0-t ([4]; Cerebrospinal fluid)	AUC0-t ([4]; Plasma)	Tmax ([4]; Brain tissue)	half-life ([4]; Brain tissue)	Tmax ([4]; Cerebrospinal fluid)	Tmax ([4]; Plasma)	half-life ([4]; Plasma)	pIC50 [5]	pIC50 [6]	further results	SMILES
< 6.00	< 6.00	90.8%	3190 ng·h/mL	938 ng/mL	1.9 h	524 h*ng/mL or h*ng/g	59 h*ng/mL or h*ng/g	50857 h*ng/mL or h*ng/g	1 h	3 h	0.5 h	1 h	3.1 h	< 6.00	7.62	half-life ([4]; Cerebrospinal fluid): 6.3 h	C=C(C(=O)Nc1ccc(-c2c(-c3ccc(Oc4nccc(C)n4)c(F)c3)c3c(N)ncnc3n2C)cc1)C1CC1 [Compound 1, N-(4-(4-amino-5-(3-fluoro-4-((4-methylpyrimidin-2-yl)oxy)phenyl)-7-methyl-7H-pyrrolo[2,3-d]pyrimidin-6-yl)phenyl]-2-cyclopropylacrylamide]
6.39	6.83	–	–	–	–	–	–	–	–	–	–	–	–	< 6.00	7.92	–	C=C(C(=O)Nc1ccc(-c2c(-c3ccc(Oc4nccc(C)n4)c(F)c3)c3c(N)ncnc3n2C)cn1)C1CC1 [Compound 2, N-(5-(4-amino-5-(3-fluoro-4-((4-methylpyrimidin-2-yl)oxy)phenyl)-7-methyl-7H-pyrrolo[2,3-d]pyrimidin-6-yl)pyridin-2-yl]-2-cyclopropylacrylamide]
6.78	7.19	24.2%	787 ng·h/mL	273 ng/mL	0.9 h	277 h*ng/mL or h*ng/g	9 h*ng/mL or h*ng/g	21966 h*ng/mL or h*ng/g	1 h	1.7 h	1 h	0.5 h	1.8 h	< 6.00	8.77	pIC50 [7]: 9.30; pIC50 [8]: 8.28; pIC50 [9]: 6.57; pIC50 [10]: 6.92; pIC50 [11]: 7.82	C=C(C(=O)Nc1ccc(-c2c(-c3ccc(Oc4nccc(C)n4)c(F)c3)c3c(N)ncnc3n2C)c(Cl)c1)C1CC1 [Compound 4, N-(4-(4-amino-5-(3-fluoro-4-((4-methylpyrimidin-2-yl)oxy)phenyl)-7-methyl-7H-pyrrolo[2,3-d]pyrimidin-6-yl)-3-chlorophenyl)-2-cyclopropylacrylamide]
6.26	6.61	–	–	–	–	–	–	–	–	–	–	–	–	< 6.00	8.14	–	C=C(C(=O)Nc1ccc(-c2c(-c3ccc(Oc4nccc(C)n4)c(F)c3)c3c(N)ncnc3n2C)c(F)c1)C1CC1 [Compound 5, N-(4-(4-amino-5-(3-fluoro-4-((4-methylpyrimidin-2-yl)oxy)phenyl)-7-methyl-7H-pyrrolo[2,3-d]pyrimidin-6-yl)-3-fluorophenyl)-2-cyclopropylacrylamide]
< 6.00	< 6.00	–	–	–	–	–	–	–	–	–	–	–	–	< 6.00	7.18	–	C=C(C(=O)Nc1ccc(-c2c(-c3ccc(Oc4cccc(Cl)n4)c(F)c3)c3c(N)ncnc3n2C)cc1)C1CC1 [Compound 9, N-(4-(4-amino-5-(4-((6-chloropyridin-2-yl)oxy)-3-fluorophenyl)-7-methyl-7H-pyrrolo[2,3-d]pyrimidin-6-yl)phenyl)-2-cyclopropylacrylamide]
